Where two headings read alike, the source gives them in different places.
Assay: Liquid dish neat product liquid-air partition coefficient
Format: physicochemical
Details: for Comment Code: Log of liquid dish neat product liquid-air partition coefficient: code letters K, L
[1] = class code letter within Comment Code

SMILES	Log of liquid dish neat product liquid-air partition coefficient (Comment Code K/L)	Comment Code: Log of liquid dish neat product liquid-air partition coefficient	Log of liquid dish neat product liquid-air partition coefficient (Comment Code K/L) [1]
CC1CC2CCC3C(C2O1)C(C)(C)C(C)C3(C)C (stereo not shown) [Material 1097]	K (Log of liquid dish neat product liquid-air partition coefficient greater than or equal to −7)	K (Log of liquid dish neat product liquid-air partition coefficient greater than or equal to −7)	
C=CC(C)=CCCC(C)(C)O [Material 42]			K (Log of liquid dish neat product liquid-air partition coefficient greater than or equal to −7)
CC/C=C\C/C=C/CCO [Material 1072]	K (Log of liquid dish neat product liquid-air partition coefficient greater than or equal to −7)		
CCC(C)C(=O)N(C)c1ccccc1 (stereo not shown) [Material 314]		K (Log of liquid dish neat product liquid-air partition coefficient greater than or equal to −7)	
C=CC(C)(CCC=C(C)C)OC=O (stereo not shown) [Material 150]		K (Log of liquid dish neat product liquid-air partition coefficient greater than or equal to −7)	
CC(=O)CCC1C(C)=CCCC1(C)C (stereo not shown) [Material 448]		K (Log of liquid dish neat product liquid-air partition coefficient greater than or equal to −7)	
CCC=CCC=CCCO [Material 929]	K (Log of liquid dish neat product liquid-air partition coefficient greater than or equal to −7)		
C=CCCCCCCCCC=O [Material 871]	K (Log of liquid dish neat product liquid-air partition coefficient greater than or equal to −7)		
CC12CCCC(O)(C1)C1CC(C)(C)C1CC2 (stereo not shown) [Material 574]	K (Log of liquid dish neat product liquid-air partition coefficient greater than or equal to −7)	K (Log of liquid dish neat product liquid-air partition coefficient greater than or equal to −7)	
C/C=C\c1ccc(O)c(OC)c1 [Material 528]		K (Log of liquid dish neat product liquid-air partition coefficient greater than or equal to −7)	
CC1CCC2C(C2(C)C)C12COC(C)(C)OC2 (stereo not shown) [Material 1036]	K (Log of liquid dish neat product liquid-air partition coefficient greater than or equal to −7)		
COC(C=C(C)CCC=C(C)C)OC [Material 520]			K (Log of liquid dish neat product liquid-air partition coefficient greater than or equal to −7)
CC(C=O)=Cc1ccccc1 [Material 701]		K (Log of liquid dish neat product liquid-air partition coefficient greater than or equal to −7)	
C=CCCC(=O)C1=CCCC2(CCCC2)C1 [Material 1038]	K (Log of liquid dish neat product liquid-air partition coefficient greater than or equal to −7)	K (Log of liquid dish neat product liquid-air partition coefficient greater than or equal to −7)	
CCCc1ccc(O)c(OC)c1 [Material 440]		K (Log of liquid dish neat product liquid-air partition coefficient greater than or equal to −7)	
C=C(C)C1CCC2(C)CCC=C(C)C2C1 (stereo not shown) [Material 774]	K (Log of liquid dish neat product liquid-air partition coefficient greater than or equal to −7)		
CC1C(C)(C)C2CCC3CC(C)(C)OC3C2C1(C)C (stereo not shown) [Material 680]	K (Log of liquid dish neat product liquid-air partition coefficient greater than or equal to −7)	K (Log of liquid dish neat product liquid-air partition coefficient greater than or equal to −7)	

SMILES	Log of liquid dish neat product liquid-air partition coefficient (Comment Code K/L)	Comment Code: Log of liquid dish neat product liquid-air partition coefficient	Log of liquid dish neat product liquid-air partition coefficient (Comment Code K/L) [1]
CC(=O)C=CC12OC1(C)CCCC2(C)C (stereo not shown) [Material 636]	K (Log of liquid dish neat product liquid-air partition coefficient greater than or equal to −7)		
C=C(C)C(=O)OCCc1ccccc1 [Material 971]		K (Log of liquid dish neat product liquid-air partition coefficient greater than or equal to −7)	
C=CCCC(=O)C1CCCC(C)(C)C1 (stereo not shown) [Material 334]			K (Log of liquid dish neat product liquid-air partition coefficient greater than or equal to −7)
C=C(C)C1CC=C(C)C(O)C1 (stereo not shown) [Material 170]			K (Log of liquid dish neat product liquid-air partition coefficient greater than or equal to −7)
COc1ccc(CC(C)C=O)cc1 (stereo not shown) [Material 586]	K (Log of liquid dish neat product liquid-air partition coefficient greater than or equal to −7)		
CC(C)(C)c1ccc(CC=O)cc1 [Material 994]		K (Log of liquid dish neat product liquid-air partition coefficient greater than or equal to −7)	
CC1=CC(=O)CC(C)C12CCC(=C(C)C)C2 (stereo not shown) [Material 610]	K (Log of liquid dish neat product liquid-air partition coefficient greater than or equal to −7)		
CCCCCCCCCCCCCC(=O)OCC [Material 388]			K (Log of liquid dish neat product liquid-air partition coefficient greater than or equal to −7)
CCc1ccccc1CC(C)(C)C=O [Material 356]			K (Log of liquid dish neat product liquid-air partition coefficient greater than or equal to −7)
C=Cc1ccc(O)cc1 [Material 789]		K (Log of liquid dish neat product liquid-air partition coefficient greater than or equal to −7)	
CC(C)Cc1ccc(CC(C)C=O)cc1 (stereo not shown) [Material 1033]	K (Log of liquid dish neat product liquid-air partition coefficient greater than or equal to −7)		
C=CC1(C)Cc2occ(C)c2CC1C(=C)C (stereo not shown) [Material 488]		K (Log of liquid dish neat product liquid-air partition coefficient greater than or equal to −7)	K (Log of liquid dish neat product liquid-air partition coefficient greater than or equal to −7)
CC1=CC(C)C2C(CCC(C)(C)C2O)C1 (stereo not shown) [Material 39]		K (Log of liquid dish neat product liquid-air partition coefficient greater than or equal to −7)	K (Log of liquid dish neat product liquid-air partition coefficient greater than or equal to −7)
CC(=O)OC(C)(C)C1CC=C(C)CC1 (stereo not shown) [Material 687]		K (Log of liquid dish neat product liquid-air partition coefficient greater than or equal to −7)	
C=C(C)C1CCC(C)C(OC(C)=O)C1 (stereo not shown) [Material 444]			K (Log of liquid dish neat product liquid-air partition coefficient greater than or equal to −7)
CC(C)C1CCC(CO)CC1 (stereo not shown) [Material 133]		K (Log of liquid dish neat product liquid-air partition coefficient greater than or equal to −7)	
C=CC1(C)CCC(C(C)(C)O)O1 (stereo not shown) [Material 156]			K (Log of liquid dish neat product liquid-air partition coefficient greater than or equal to −7)
